Experimental data: patent publication US8207144B2, “Sodium salt of disaccharide compound, production method and use of same” (Eisai R & D Management Co., Ltd., priority 2006, dated 2012)

Assay: Storage stability test (formation of impurities A, B and C by HPLC)
Assay type: physicochemical
Settings: HPLC area percent
Method: Consequently, formation rates (converted to monthly rates) were calculated for each of the three types of decomposition products (impurities A, B and C) using the area percent.

[1] = storage at 25° C. in screw-cap glass bottle, day 0
[2] = storage at 25° C., day 1.0, listed as 3.93 Na Salt
[3] = storage at 25° C., day 1.9, listed as 3.93 Na Salt
[4] = storage at 25° C., day 4.5, listed as 3.93 Na Salt
[5] = storage at 25° C., day 1.0, listed as 3.67 Na Salt
[6] = storage at 25° C., day 1.9, listed as 3.67 Na Salt
[7] = storage at 25° C., day 4.5, listed as 3.67 Na Salt

For `CCCCCC/C=C\CCCCCCCCCC(=O)NC1C(OCC2OC(OP(=O)([O-])[O-])C(NC(=O)CC(=O)CCCCCCCCCCC)C(OCCCCCCCCCC)C2O)OC(COC)C(OP(=O)([O-])[O-])C1OCCC(CCCCCCC)OC.[Na+].[Na+].[Na+].[Na+]` (stereo not drawn) [Comparative Example 1, reference compound], the “Impurity A” value [1] was 0.00%, the “Impurity B” value (storage at 25° C., day 0) was 0.18% and the “Impurity C” value (storage at 25° C., day 0) was 0.00%. The “Impurity A” value (storage at 25° C., day 1.0) was 0.06%, the “Impurity B” value (storage at 25° C., day 1.0) was 0.36% and the “Impurity C” value (storage at 25° C., day 1.0) was 0.00%. For the same compound, the “Impurity A” value (storage at 25° C., day 1.9) was 0.08%, the “Impurity B” value (storage at 25° C., day 1.9) was 0.48% and the “Impurity C” value (storage at 25° C., day 1.9) was 0.00%. For the same compound, the “Impurity A” value (storage at 25° C., day 4.5) was 0.12%, the “Impurity B” value (storage at 25° C., day 4.5) was 0.67% and the “Impurity C” value (storage at 25° C., day 4.5) was 0.00%. For the same compound, the “Impurity C” value (storage at 25° C., day 8.8) was 0.00% and the “Impurity C” value (storage at 25° C., day 29.5) was 0.03%.

For `CCCCCC/C=C\CCCCCCCCCC(=O)N[C@H]1[C@H](OC[C@H]2O[C@H](OP(=O)([O-])[O-])[C@H](NC(=O)CC(=O)CCCCCCCCCCC)[C@@H](OCCCCCCCCCC)[C@@H]2O)O[C@H](COC)[C@@H](OP(=O)([O-])[O-])[C@@H]1OCC[C@@H](CCCCCCC)OC.[Na+].[Na+].[Na+].[Na+]` [Example 4], the “Impurity A” value [1] was 0.00%, the “Impurity C” value (storage at 25° C., day 0) was 0.00% and the “Impurity B” value (storage at 25° C., day 0, listed as 3.93 Na Salt) was 0.14%. The “Impurity C” value (storage at 25° C., day 1.0) was 0.00%, the “Impurity A” value [2] was 0.03% and the “Impurity B” value [2] was 0.26%. For the same compound, the “Impurity C” value (storage at 25° C., day 1.9) was 0.00%, the “Impurity A” value [3] was 0.04% and the “Impurity B” value [3] was 0.29%. For the same compound, the “Impurity C” value (storage at 25° C., day 4.5) was 0.01%, the “Impurity A” value [4] was 0.06% and the “Impurity B” value [4] was 0.38%. The “Impurity C” value (storage at 25° C., day 8.8) was 0.01% and the “Impurity C” value (storage at 25° C., day 29.5, listed as 3.93 Na Salt) was 0.06%.

With `CCCCCC/C=C\CCCCCCCCCC(=O)N[C@H]1[C@H](OC[C@H]2O[C@H](OP(=O)(O)O)[C@H](NC(=O)CC(=O)CCCCCCCCCCC)[C@@H](OCCCCCCCCCC)[C@@H]2O)O[C@H](COC)[C@@H](OP(=O)(O)O)[C@@H]1OCC[C@@H](CCCCCCC)OC` [Example 2] the “Impurity A” value [1] was 0.00%, the “Impurity B” value (storage at 25° C., day 0) was 0.00% and the “Impurity C” value (storage at 25° C., day 0) was 0.00%. For the same compound, the “Impurity A” value (storage at 25° C., day 18) was 0.00%, the “Impurity B” value (storage at 25° C., day 18) was 0.00% and the “Impurity C” value (storage at 25° C., day 18) was 0.17%.

For `CCCCCC/C=C\CCCCCCCCCC(=O)N[C@H]1[C@H](OC[C@H]2O[C@H](OP(=O)([O-])[O-])[C@H](NC(=O)CC(=O)CCCCCCCCCCC)[C@@H](OCCCCCCCCCC)[C@@H]2O)O[C@H](COC)[C@@H](OP(=O)([O-])[O-])[C@@H]1OCC[C@@H](CCCCCCC)OC.[Na+].[Na+].[Na+].[Na+]` [Example 3], the “Impurity A” value [1] was 0.00%, the “Impurity C” value (storage at 25° C., day 0) was 0.00% and the “Impurity B” value (storage at 25° C., day 0, listed as 3.67 Na Salt) was 0.08%. For the same compound, the “Impurity C” value (storage at 25° C., day 1.0) was 0.00%, the “Impurity A” value [5] was 0.00% and the “Impurity B” value [5] was 0.12%. The “Impurity C” value (storage at 25° C., day 1.9) was 0.00%, the “Impurity A” value [6] was 0.01% and the “Impurity B” value [6] was 0.09%. The “Impurity C” value (storage at 25° C., day 4.5) was 0.01%, the “Impurity A” value [7] was 0.01% and the “Impurity B” value [7] was 0.13%. For the same compound, the “Impurity C” value (storage at 25° C., day 8.8) was 0.01% and the “Impurity C” value (storage at 25° C., day 29.5, listed as 3.67 Na Salt) was 0.07%.
